{"source": "patent US6630165B2", "about": "“Methods for providing effective reboxetine therapy with once-a-day dosing” (priority 1999, dated 2003)", "key": {"[1]": {"settings": "in vivo; cited from earlier work"}, "[2]": {"assay": "reboxetine elimination half-life and time to steady state", "assay_type": "in vivo", "settings": "about four elimination half lives after initiation of continuous intermittent dosing", "protocol": "Generally, continuous dosing for a period equal to about four elimination half lives is required to obtain steady-state conditions. Accordingly, steady-state conditions are approached at approximately 52 hours following initiation of a continuous intermittent dosing regimen. Mean steady-state plasma reboxetine concentrations following dosing every 24 hours with 4 mg doses of reboxetine methanesulfonate in two different sustained release dosage forms, having T90 values of about 9 hours and about 18 hours, respectively, and following dosing every 12 hours with 2 mg doses of reboxetine methanesulfonate (total daily dose=4 mg) in an immediate release dosage form for a period of four days (96 hours) were simulated."}}, "data": [{"smiles": "CCOc1ccccc1OC(c1ccccc1)C1CNCCO1", "note": "(stereo not drawn) [Reboxetine, 2-[α(2-ethoxyphenoxy)benzyl]morpholine]", "values": [{"measurement": "elimination half-life (t1/2)", "setting": "[1]", "result": "about 13 hours"}, {"measurement": "time at which steady-state conditions are approached", "setting": "[2]", "result": "approximately 52 hours"}]}]}
